Columns and labels:
Format in all cases: cell-based
[1] = tested on: Rhizopus stolonifer DSM 63011; test: MIC in microtitre plates, Rhizopus stolonifer; conditions: DSM63011, 120 h, Table 1, 5 days at 28° C., ≦20% growth
Method: (§1) Determination of Antimicrobial Activity in Accordance with the Microtitre Plate Method Determination of the Minimum Inhibitory Concentration (MIC value) in Microtitre Plates Mycological slant agar for the preculture of moulds. Rhizopus stolonifer DSM 63011 The test substances are predissolved in dimethyl sulfoxide (DMSO) and tested in a dilution series of 1:2. Bacteria and yeast are cultured overnight in CASO bouillon, the mould on mycological slant agar and rinsed off with 10 ml of 0.85% sodium chloride solution (+0.1% TritonX-100). All test organisms are adjusted to an organism count of 1-5*10^6 CFU/ml with 0.85% sodium chloride solution. The test substances are prepipetted into microtitre plates in an amount of 8 μl per well. Previously diluted test organism suspensions are diluted 1:100 in CASO bouillon (bacteria and yeast) and Sabouraud 2% glucose bouillon (mould) and added to the test substances in an amount of 192 μl per well. The test batches are incubated for 48 hours at 37° C. (bacteria and yeast) or for 5 days at 28° C. (mould). After incubation, the growth is determined by reference to the turbidity of the test batches (optical density) at 620 nm in a microplate reader. […]

[2] = tested on: Penicillium expansum ATCC 36200; test: MIC in microtitre plates, Penicillium expansum; conditions: ATCC36200, 120 h, Table 1, 5 days at 28° C., ≦20% growth
Method: as §1, with “Penicillium expansum ATCC 36200” for “Rhizopus stolonifer DSM 63011”

[3] = tested on: Candida albicans ATCC 10231; test: MIC in microtitre plates, Candida albicans; conditions: Candida albicans, ATCC10231; Table 1; ATCC 10231; 48 hours at 37° C.; ≦20% growth; read-out: MIC Candida albicans
Method: Determination of Antimicrobial Activity in Accordance with the Microtitre Plate Method Determination of the Minimum Inhibitory Concentration (MIC value) in Microtitre Plates casein-soybean flour-peptone bouillon for the preparation of the precultures of the test bacteria and yeast. Candida albicans ATCC 10231 The test substances are predissolved in dimethyl sulfoxide (DMSO) and tested in a dilution series of 1:2. Bacteria and yeast are cultured overnight in CASO bouillon, the mould on mycological slant agar and rinsed off with 10 ml of 0.85% sodium chloride solution (+0.1% TritonX-100). All test organisms are adjusted to an organism count of 1-5*10^6 CFU/ml with 0.85% sodium chloride solution. The test substances are prepipetted into microtitre plates in an amount of 8 μl per well. Previously diluted test organism suspensions are diluted 1:100 in CASO bouillon (bacteria and yeast) and Sabouraud 2% glucose bouillon (mould) and added to the test substances in an amount of 192 μl per well. The test batches are incubated for 48 hours at 37° C. (bacteria and yeast) or for 5 days at 28° C. (mould). After incubation, the growth is determined by reference to the turbidity of the test batches (optical density) at 620 nm in a microplate reader. The minimum inhibitory concentration (MIC value) is the concentration of substance at which (compared with the growth of the control) an appreciable inhibition of the growth (≦20% growth) of the test organisms is ascertained. One microtitre plate is used for each test organism and substance concentration. All substances are tested in duplicate.

[4] = tested on: Staphylococcus aureus ATCC 9144; test: MIC in microtitre plates, Staphylococcus aureus; conditions: ATCC9144, Table 1, 48 hours at 37° C., ≦20% growth
Method: as §1, with “casein-soybean flour-peptone bouillon” for “Mycological slant agar”, “preparation” for “preculture”, “the precultures of the test bacteria and yeast. Staphylococcus aureus ATCC 9144” for “moulds. Rhizopus stolonifer DSM 63011”

MIC [1]: 50 µg/mL
MIC [2]: 100 µg/mL
MIC [3]: 100 to 500 µg/mL
MIC [4]: 100 to 500 µg/mL
Structure (SMILES): O=C(CC(=O)c1ccccc1O)c1ccco1 [Compound of formula (101)]

Source: patent US6346260B1, “Microbicidal active ingredients” (Ciba Specialty Chemicals Corporation, priority 1999, dated 2002)
